Test results reported in US9469615B2, “Quinoxalines and AZA-quinoxalines as CRTH2 receptor modulators” (Merck Sharp & Dohme Corp., priority 2010, dated 2016).

Target: T1, hCRTH2 (Homo sapiens, UniProt Q9Y5Y4)
T1 construct: expressed in transfected cells; host or cells: HEK (human embryonic kidney) cells expressing hCRTH2; membrane preparation
T1 sequence (Q9Y5Y4 1-395): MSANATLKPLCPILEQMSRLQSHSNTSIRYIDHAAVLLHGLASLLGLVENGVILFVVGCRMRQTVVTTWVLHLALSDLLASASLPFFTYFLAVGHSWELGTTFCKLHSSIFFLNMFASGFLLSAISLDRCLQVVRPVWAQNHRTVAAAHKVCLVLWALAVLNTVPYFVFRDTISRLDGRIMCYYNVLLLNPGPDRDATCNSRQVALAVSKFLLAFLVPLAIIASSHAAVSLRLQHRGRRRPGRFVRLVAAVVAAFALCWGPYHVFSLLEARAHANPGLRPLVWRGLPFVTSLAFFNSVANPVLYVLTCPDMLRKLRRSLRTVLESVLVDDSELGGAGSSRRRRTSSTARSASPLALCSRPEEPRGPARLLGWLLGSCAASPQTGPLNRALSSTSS
Assay: Radioligand binding assay ([3H]PGD2 competition, HEK-hCRTH2 membranes)
Settings: [3H]PGD2 binding, rated A-E (Table A)
Outline: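 HEK-hCRTH2 membranes, 8-20 μg; [3H]PGD2 3.0 nM; 50 mM Tris-HCl pH 7.4/1 mM EDTA/2 mM MnCl2; DMSO 1%; 60 min RT; NSB 10 μM PGD2; filtration, scintillation counting.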

Row | Ki | Compound
1 | 2.1 to 20 nM | O=C(O)CCCCc1nc2cc(C(=O)NCc3ccc(F)cc3)ccc2nc1-c1ccc(F)cc1 [compound 109, 3-(4-fluorophenyl)-7-[[[(4-fluorophenyl)methyl]amino]carbonyl]-2-quinoxalinepentanoic acid]
2 | 2.1 to 20 nM | C[C@@H](NC(=O)c1ccc2nc(-c3ccc(F)cc3)c(CCCCC(=O)O)nc2c1)c1ccc(F)cc1 [compound 110, 3-(4-fluorophenyl)-7-[[[1(R)-(4-fluorophenyl)ethyl]amino]carbonyl]-2-quinoxalinepentanoic acid]
3 | 2.1 to 20 nM | C[C@H](NC(=O)c1ccc2nc(-c3ccc(F)cc3)c(CCCCC(=O)O)nc2c1)c1ccc(F)cc1 [compound 111, 3-(4-fluorophenyl)-7-[[[1(S)-(4-fluorophenyl)ethyl]amino]carbonyl]-2-quinoxalinepentanoic acid]
4 | 2.1 to 20 nM | O=C(O)CCCCc1nc2cc(C(=O)NCc3ccc(C(F)(F)F)cc3)ccc2nc1-c1ccc(F)cc1 [compound 112]
5 | 2.1 to 20 nM | O=C(O)CCCCc1nc2cc(C(=O)N3CC=C(c4ccccc4)CC3)ccc2nc1-c1ccc(F)cc1 [compound 127, 5-(3-(4-fluorophenyl)-7-(4-phenyl-1,2,3,6-tetrahydropyridine-1-carbonyl)quinoxalin-2-yl)pentanoic acid]
6 | 0.1 to 2 nM | O=C(O)CCCCc1nc2cc(C(=O)NCc3ccccc3)ccc2nc1-c1ccc(F)cc1 [compound 129, 3-(4-fluorophenyl)-7-[[(phenylmethyl)amino]carbonyl]-2-quinoxalinepentanoic acid]
7 | 0.1 to 2 nM | C[C@@H](NC(=O)c1ccc2nc(-c3ccc(F)cc3)c(CCCCC(=O)O)nc2c1)c1ccc(Cl)cc1 [compound 130, 7-[[[1(R)-(4-chlorophenyl)ethyl]amino]carbonyl]-3-(4-fluorophenyl)-2-quinoxalinepentanoic acid]
8 | 2.1 to 20 nM | C[C@H](NC(=O)c1ccc2nc(-c3ccc(F)cc3)c(CCCCC(=O)O)nc2c1)c1ccc(Cl)cc1 [compound 131, 7-[[[1(S)-(4-chlorophenyl)ethyl]amino]carbonyl]-3-(4-fluorophenyl)-2-quinoxalinepentanoic acid]
9 | 2.1 to 20 nM | C[C@@H](NC(=O)c1ccc2nc(-c3ccc(F)cc3)c(CCCCC(=O)O)nc2c1)c1ccccc1 [compound 132, 3-(4-fluorophenyl)-7-[[(1(R)-phenylethyl)amino]carbonyl]-2-quinoxalinepentanoic acid]
10 | 2.1 to 20 nM | C[C@H](NC(=O)c1ccc2nc(-c3ccc(F)cc3)c(CCCCC(=O)O)nc2c1)c1ccccc1 [compound 133, 3-(4-fluorophenyl)-7-[[(1(S)-phenylethyl)amino]carbonyl]-2-quinoxalinepentanoic acid]
11 | 0.1 to 2 nM | O=C(O)CCCCc1nc2cc(C(=O)N3CCC(O)(c4ccc(Cl)cc4)CC3)ccc2nc1-c1ccc(F)cc1 [compound 134, 7-[[4-(4-chlorophenyl)-4-hydroxy-1-piperidinyl]carbonyl]-3-(4-fluorophenyl)-2-quinoxalinepentanoic acid]
12 | 2.1 to 20 nM | O=C(O)CCCCc1nc2cc(C(=O)N3CCC(c4ccc(Cl)cc4)CC3)ccc2nc1-c1ccc(F)cc1 [compound 135]
13 | 2.1 to 20 nM | O=C(O)CCCCc1nc2cc(C(=O)N3CC=C(c4ccc(Cl)cc4)CC3)ccc2nc1-c1ccc(F)cc1 [compound 136, 7-[[4-(4-chlorophenyl)-3,6-dihydro-1(2H)-pyridinyl]carbonyl]-3-(4-fluorophenyl)-2-quinoxalinepentanoic acid]
14 | 20.1 to 200 nM | O=C(O)CCCCc1nc2cc(C(=O)N[C@H](c3ccccc3)C(F)(F)F)ccc2nc1-c1ccc(F)cc1 [compound 137, 3-(4-fluorophenyl)-7-[[[2,2,2-2-trifluoro-1(R)-phenylethyl)amino]carbonyl]-2-quinoxalinepentanoic acid]
15 | 2.1 to 20 nM | O=C(O)CCCCc1nc2cc(C(=O)N[C@@H](c3ccc(F)cc3)C(F)(F)F)ccc2nc1-c1ccc(F)cc1 [compound 138, 3-(4-fluorophenyl)-7-[[[2,2,2-trifluoro-1(S)-(4-fluorophenyl)ethyl]amino]carbonyl]-2-quinoxalinepentanoic acid]
16 | 2.1 to 20 nM | O=C(O)CCCCc1nc2cc(C(=O)N[C@H](c3ccc(F)cc3)C(F)(F)F)ccc2nc1-c1ccc(F)cc1 [compound 139, 3-(4-fluorophenyl)-7-[[[(1R)-2,2,2-trifluoro-1-(4-fluorophenyl)ethyl]amino]carbonyl]-2-quinoxalinepentanoic acid]

Second part, the compound before the results:

Row | Compound | Ki
17 | COCCn1c(=O)n(C2CCN(C(=O)c3ccc4nc(-c5ccccc5)c(CCCCC(=O)O)nc4c3)CC2)c2ccccc21 [compound 113, 7-[[4-[2,3-dihydro-3-(2-methoxyethyl)-2-oxo-1H-benzimidazol-1-yl]-1 - piperidinyl]carbonyl]-3-phenyl-2-quinoxalinepentanoic acid] | 2.1 to 20 nM
18 | CO/N=C(/c1ccccn1)C1CCN(C(=O)c2ccc3nc(-c4ccccc4)c(CCCCC(=O)O)nc3c2)CC1 [compound 114, 7-[[4-[(E)-(methoxyimino)-2-pyridinylmethyl]-1-piperidinyl]carbonyl]-3-phenyl-2-quinoxalinepentanoic acid] | 2.1 to 20 nM
19 | O=C(O)CCCCc1nc2cc(C(=O)N3CC=C(c4ccccc4)CC3)ccc2nc1-c1ccccc1 [compound 116, 7-(4-phenyl-1,2,3,6-tetrahydropyridine-1-carbonyl)-3-phenyl-2-quinoxalinepentanoic acid] | 2.1 to 20 nM
20 | O=C(O)CCCCc1nc2cc(C(=O)N3CCC(n4c(=O)[nH]c5ccccc54)CC3)ccc2nc1-c1ccccc1 [compound 117, 7-[[4-(2,3-dihydro-2-oxo-1H-benzimidazol-1-yl)-1-piperidinyl]carbonyl]-3-phenyl-2-quinoxalinepentanoic acid] | 2.1 to 20 nM
21 | CS(=O)(=O)N1CC2(CCN(C(=O)c3ccc4nc(-c5ccccc5)c(CCCCC(=O)O)nc4c3)CC2)c2ccccc21 [compound 118, 7-[[1,2-dihydro-1-(methylsulfonyl)spiro[3H-indole-3,4′-piperidin]-1′-yl]carbonyl]-3-phenyl-2-quinoxalinepentanoic acid] | 2.1 to 20 nM
22 | CN1C(=O)C2(CCN(C(=O)c3ccc4nc(-c5ccccc5)c(CCCCC(=O)O)nc4c3)CC2)c2ccccc21 [compound 119] | 2.1 to 20 nM
23 | O=C(O)CCCCc1nc2cc(C(=O)N3CCC4(CC3)COc3ccccc34)ccc2nc1-c1ccccc1 [compound 120, 3-phenyl-7-(spiro[benzofuran-3(2H),4′-piperidin]-1′-ylcarbonyl)-2-quinoxalinepentanoic acid] | 2.1 to 20 nM
24 | O=C(O)CCCCc1nc2cc(C(=O)N3CCC4(CCc5ccccc54)CC3)ccc2nc1-c1ccccc1 [compound 121, 7-[(2,3-dihydrospiro [1H-indene-1,4′-piperidin]-1′-yl)carbonyl]-3-phenyl-2-quinoxalinepentanoic acid] | 2.1 to 20 nM
25 | CN1CC2(CCN(C(=O)c3ccc4nc(-c5ccccc5)c(CCCCC(=O)O)nc4c3)CC2)c2ccccc21 [compound 122, 7-[(1,2-dihydro-1-methylspiro[3H-indole-3,4′-piperidin]-1′-yl)carbonyl]-3-phenyl-2-quinoxalinepentanoic acid] | 2.1 to 20 nM
26 | CC(=O)N1CC2(CCN(C(=O)c3ccc4nc(-c5ccccc5)c(CCCCC(=O)O)nc4c3)CC2)c2ccccc21 [compound 123, 7-[(1-acetyl-1,2-dihydrospiro[3H-indole-3,4′-piperidin]-1′-yl)carbonyl]-3-phenyl-2-quinoxalinepentanoic acid] | 2.1 to 20 nM
27 | N#CC1(c2ccccc2)CCN(C(=O)c2ccc3nc(-c4ccccc4)c(CCCCC(=O)O)nc3c2)CC1 [compound 124, 7-[(4-cyano-4-phenyl-1-piperidinyl)carbonyl]-3-phenyl-2-quinolaxinepentanoic acid] | 2.1 to 20 nM
28 | O=C(O)CCCCc1nc2cc(C(=O)N3CCC4(CC3)C(=O)NCN4c3ccccc3)ccc2nc1-c1ccccc1 [compound 125, 7-[(4-oxo-l-phenyl-1,3,8-triazaspiro[4.5]dec-8-yl)carbonyl]-3-phenyl-2-quinoxalinepentanoic acid] | 2.1 to 20 nM
29 | O=C(O)CCCCc1nc2cc(C(=O)N3CCC4(CC3)C(=O)NCN4c3ccccc3)ccc2nc1-c1ccc(F)cc1 [compound 126, 3-(4-fluorophenyl)-7-[(4-oxo-1-phenyl-1,3,8-triazaspiro[4.5]dec-8-yl)carbonyl]-2-quinoxalinepentanoic acid] | 2.1 to 20 nM
30 | N#CC1(c2ccccc2)CCN(C(=O)c2ccc3nc(-c4ccc(F)cc4)c(CCCCC(=O)O)nc3c2)CC1 [compound 128] | 2.1 to 20 nM
31 | O=C(O)CCCCc1nc2cc(C(=O)N3CC[C@@H](c4ccccc4)C3)ccc2nc1-c1ccccc1 [compound 140, 3-phenyl-7-[(3(S)-phenyl-1-pyrrolidinyl)carbonyl]-2-quinoxalinepentanoic acid] | 0.1 to 2 nM
32 | O=C(O)CCCCc1nc2cc(C(=O)N3CC[C@H](c4ccccc4)C3)ccc2nc1-c1ccccc1 [compound 141, 3-phenyl-7-[(3(R)-phenyl-1-pyyrolidinyl)carbonyl]-2-quinoxalinepentanoic acid] | 2.1 to 20 nM
33 | O=C(O)CCCCc1nc2cc(C(=O)N3CCC[C@@H](c4ccccc4)C3)ccc2nc1-c1ccccc1 [compound 142, 3-phenyl-7-[(3(S)-phenyl-1-piperidinyl)carbonyl]-2-quinoxalinepentanoic acid] | 2.1 to 20 nM
34 | O=C(O)CCCCc1nc2cc(C(=O)N3CCC[C@H](c4ccccc4)C3)ccc2nc1-c1ccccc1 [compound 143, 3-phenyl-7-[(3(R)-phenyl-1-piperidinyl)carbonyl]-2-quinooxalinepentanoic acid] | 2.1 to 20 nM
